Experiment: Determination of bio-accumulation: urinary clearance pharmacokinetic study in rats
Details: oral gavage, 73 micro Moles per kg body weight
Description: Determination of Bio-Accumulation
The fluorinated surfactants were evaluated for urinary clearance using a pharmacokinetic study in rats. The goal was to measure the total amount of parent compound eliminated via urinary output and estimate the rate of elimination.
The study utilized male Sprague Dawley rats, 6 to 8 weeks of age, and approximately 200 to 250 g body weight at study onset. The test compounds of table 2 were administered at a dose of 73 micro Moles per kg body weight in rats (N=3 animals per tested compound). All test compounds were prepared in sterile deionized water and given to rats via oral gavage. After test compounds administration, the rats were housed individually in metabolism cages for urine collection: 0 to 6 hours, 6 to 24 hours, 24 to 48 hours and 72 to 96 hours. Animals were observed throughout the study for clinical signs of toxicity. Gross necropsy was performed at the termination of each study (96 hours post-dose) with sera and liver samples being retained from each animal.
The concentration of the parent compound or metabolites thereof were quantitatively measured via fluorine NMR on each urine sample for each animal at each time point based on internally added standards.
T1/2 is the renal half-life and is the time required for the amount of a particular substance in a biological system to be reduced to one half of its value by biological processes when the rate of removal is approximately exponential. In these examples the value of T1/2 is calculated by exponential least squares curve fitting (y=Ae^Bx and T1/2=0.693/B) where y represents the concentration of analyte in urine and x represents time in hours.

Which “% Recovery (96 h)” value (recovery in urine after 96 h) does the source give for `N.O=C(O)C(F)OC(F)(F)C(F)(F)C(F)(F)OC(F)(F)F` (stereo not drawn) [Compound 3, CF3—O—CF2—CF2—CF2—O—CHF—COONH4] here?
The value was 95%.

What about the “T½ (renal elimination half-life)” value (urine measured by fluorine NMR, exponential least squares curve fitting) of the same compound?
Its value is 11 h.

For `N.O=C(O)C(F)(F)C(F)(F)C(F)(F)C(F)(F)C(F)(F)C(F)(F)C(F)(F)F` [APFO, ammonium perfluorooctanoic acid, reference compound], which “Compound-related Effects” value (clinical signs of toxicity and gross necropsy at 96 hours post-dose) is on record?
The value was “Hepatomegaly”.

— patent US7838608B2, “Fluorinated surfactants for making fluoropolymers” (3M Innovative Properties Company, priority 2005, dated 2010)
